The values below come from patent US20250163043A1 (TRANSTHERA SCIENCES (NANJING), INC., priority 2021, published 2025).

Common to all, as to format: biochemical
In one assay the target is CDK9/CycT1 (Homo sapiens, UniProt P50750). The assay is described as follows: ADP-Glo kinase assay on CDK enzymatic activity, CDK9/CycT1. As to conditions: 10 concentrations from 10 μM, 4-fold, 60 min room temperature. An excerpt:
(§1) Test samples: the compounds of the present invention, having structures shown above.
(§2) ADP-Glo Kinase Assay (ADP-Glo kinase kit), DMSO (dimethyl sulfoxide), CDK9/CycT1 (cyclin-dependent kinase 9/cyclin T1), CDK tide (cyclin-dependent kinase substrate peptide fragments), CDK1/CycE1 (cyclin-dependent kinase 1/cyclin E1), CDK2/CycA2 (cyclin-dependent kinase 2/cyclin A2), CDK3/CycE1 (cyclin-dependent kinase 3/cyclin E1), CDK4/CycD3 (cyclin-dependent kinase 4/cyclin D3), CDK5/p25NCK (cyclin-dependent kinase 5/p25), and AZD 4573.
(§3) A 384-well white plate, a 96-well plate, a microplate oscillator, a centrifuge, and a microplate reader.
(§4) The compounds were dissolved in DMSO and diluted 4-fold in the 96-well plate to obtain stock solutions with 10 concentration gradients, and added into a 384-well plate system to obtain a series of 10 concentration gradients of compound solutions with final concentrations of 10 μM starting and 4-fold gradient decreasing. 1 μM AZD4573 was used as compound positive control (PC) and 0.5% DMSO as solvent vehicle control (VC), ten duplicated wells each for PC and VC.
(§5) 1 μL of compound solution and 2 μL of 2× kinase solution were transferred to each well, and the plate was centrifuged at 1000 g for 30 s and left at room temperature for 10 min. A mixture of 2× substrate and ATP was prepared in 1× kinase buffer. The reaction was started after adding 2 μL of substrate and ATP into the plate. The plate was centrifuged at 1000 g for 30 s. The assay plate was closed and left at room temperature for 60 min. The reaction system was added with 4 μL of ADP Glo reagent, centrifuged at 1000 rpm for 1 min, and incubated at room temperature for 40 min. The reaction system was added with 8 μL of kinase assay reagent, centrifuged at 1000 rpm for 1 min and incubated at room temperature for 40 min. The […] was read on Biotek.
(§6) The inhibition rate was calculated according to the following formula: […]
(§7) Lumcmpd: compound fluorescence reading; Lumpositive: average value of the fluorescence reading of positive compound control; Lumvehicle: average value of the fluorescence reading of solvent vehicle control.
(§8) IC50 values were fitted using GraphPad 7.0 based on inhibition rates of compounds at different concentrations.

For a further assay, the target named is CDK1/CycE1 (Homo sapiens, UniProt P06493). Put plainly: ADP-Glo kinase assay on CDK enzymatic activity, CDK1/CycE1. Particulars: ADP-Glo; 10 concentrations from 10 μM, 4-fold; 60 min room temperature; read-out: CDK1/CycE1/nM (IC50). As for the experimental part: as §1, §3, §4, §5, §6, §7, §8
On the technique in general: ADP-Glo turns the ADP formed in a reaction into a luminescent signal.

A further assay addresses CDK2/CycA2 (Homo sapiens, UniProt P24941). Put plainly: ADP-Glo kinase assay on CDK enzymatic activity, CDK2/CycA2. As to conditions: 10 concentrations from 10 μM, 4-fold, 60 min room temperature.
Excerpt: as §1, §2, §3, §4, §5, §6, §7, §8

Chain of CDK9/CycT1 (P50750 whole entry): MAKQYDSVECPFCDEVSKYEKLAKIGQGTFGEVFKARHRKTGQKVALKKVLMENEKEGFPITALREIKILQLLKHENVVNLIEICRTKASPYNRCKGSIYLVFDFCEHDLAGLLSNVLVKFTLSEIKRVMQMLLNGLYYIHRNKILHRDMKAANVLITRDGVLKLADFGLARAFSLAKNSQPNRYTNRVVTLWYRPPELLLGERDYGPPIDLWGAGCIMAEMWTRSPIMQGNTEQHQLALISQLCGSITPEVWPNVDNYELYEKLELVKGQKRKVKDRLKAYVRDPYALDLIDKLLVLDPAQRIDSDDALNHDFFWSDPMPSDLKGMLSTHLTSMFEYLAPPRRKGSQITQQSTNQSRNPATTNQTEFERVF
Chain of CDK9/CycT1 (O60563 whole entry partner): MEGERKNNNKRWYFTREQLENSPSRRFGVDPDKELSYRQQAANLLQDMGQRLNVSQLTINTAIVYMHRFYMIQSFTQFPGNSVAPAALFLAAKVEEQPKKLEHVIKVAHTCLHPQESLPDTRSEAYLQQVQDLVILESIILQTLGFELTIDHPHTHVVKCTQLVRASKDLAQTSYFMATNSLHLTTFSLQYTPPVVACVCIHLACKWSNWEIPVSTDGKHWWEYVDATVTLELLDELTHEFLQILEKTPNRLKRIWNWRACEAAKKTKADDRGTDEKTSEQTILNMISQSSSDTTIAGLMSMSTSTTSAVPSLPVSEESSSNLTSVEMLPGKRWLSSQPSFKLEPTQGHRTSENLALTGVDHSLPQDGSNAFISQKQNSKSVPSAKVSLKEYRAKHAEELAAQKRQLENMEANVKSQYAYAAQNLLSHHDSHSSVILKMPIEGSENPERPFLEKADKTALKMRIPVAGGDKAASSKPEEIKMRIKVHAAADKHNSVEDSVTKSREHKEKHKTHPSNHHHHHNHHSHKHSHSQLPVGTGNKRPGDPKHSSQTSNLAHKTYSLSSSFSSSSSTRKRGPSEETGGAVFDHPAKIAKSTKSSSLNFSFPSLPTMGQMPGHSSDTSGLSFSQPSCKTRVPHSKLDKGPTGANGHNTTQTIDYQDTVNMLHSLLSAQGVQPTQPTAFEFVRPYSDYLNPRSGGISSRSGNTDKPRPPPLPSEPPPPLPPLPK
Chain of CDK1/CycE1 (P06493 whole entry, species assumed): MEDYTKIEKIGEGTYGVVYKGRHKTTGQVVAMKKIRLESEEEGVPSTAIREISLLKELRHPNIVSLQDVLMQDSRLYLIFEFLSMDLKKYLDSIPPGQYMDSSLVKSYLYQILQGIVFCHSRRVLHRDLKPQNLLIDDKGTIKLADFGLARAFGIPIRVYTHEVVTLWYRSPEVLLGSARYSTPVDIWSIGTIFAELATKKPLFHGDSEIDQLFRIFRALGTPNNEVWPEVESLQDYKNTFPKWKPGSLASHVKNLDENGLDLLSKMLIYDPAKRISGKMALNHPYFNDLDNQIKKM
Chain of CDK1/CycE1 (P24864 whole entry partner, species assumed): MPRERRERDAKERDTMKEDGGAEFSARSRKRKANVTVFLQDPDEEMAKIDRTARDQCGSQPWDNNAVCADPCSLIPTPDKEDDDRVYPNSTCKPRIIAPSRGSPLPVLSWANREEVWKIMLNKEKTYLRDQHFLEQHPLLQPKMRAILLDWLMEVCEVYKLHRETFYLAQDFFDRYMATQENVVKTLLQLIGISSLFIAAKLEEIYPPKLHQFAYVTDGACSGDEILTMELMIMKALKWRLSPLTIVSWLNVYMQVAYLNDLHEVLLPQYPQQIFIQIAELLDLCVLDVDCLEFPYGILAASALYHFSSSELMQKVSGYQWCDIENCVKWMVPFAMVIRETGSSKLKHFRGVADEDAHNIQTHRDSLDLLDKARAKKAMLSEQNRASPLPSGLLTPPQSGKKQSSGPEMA

Regarding `CC(C)Nc1nc(C#N)cc2cnc(N[C@H]3C[C@H](N4CCN(C)CC4)C3)nc12` [Compound C22, 8-(isopropylamino)-2-(((1r,3r)-3-(4-methylpiperazin-1-yl)cyclobutyl)amino)pyrido[3,4-d]pyrimidine-6-carbonitrile], the IC50 at CDK9/CycT1 is 2 nM; at CDK1/CycE1 it was 218 nM; on CDK2/CycA2 it was 24 nM.

Turning to `N#Cc1cc2cnc(N[C@H]3CCCNC3)cc2c(C2=CCCCC2)n1` [Compound 180, (S)-1-(cyclohex-1-en-1-yl)-7-(piperidin-3-ylamino)-2,6-naphthyridine-3-carbonitrile], the figures for the IC50 against CDK9/CycT1, on CDK1/CycE1 and at CDK2/CycA2 were 7 nM, 204 nM and 844 nM, respectively.

`N#Cc1cc2cnc(N[C@H]3CCCNC3)cc2c(N2CCCC2)n1` [Compound 169, (S)-7-(piperidin-3-ylamino)-1-(pyrrolidin-1-yl)-2,6-naphthyridine-3-carbonitrile]: the values for the IC50 against CDK9/CycT1, at CDK1/CycE1 and at CDK2/CycA2 were 5 nM, 798 nM and 2210 nM, respectively.

For the molecule `CC(C)Nc1nc(C(F)F)cc2cnc(Nc3cc(CS(C)(=N)=O)ccn3)cc12` (stereo not drawn) [Compound 163, ((2-((7-(difluoromethyl)-5-(isopropylamino)-2,6-naphthyridin-3-yl)amino)pyridin-4-yl)methyl)(methyl)sulfinylimine], the IC50 amounted to 2 nM against CDK9/CycT1, 31 nM on CDK1/CycE1 and 7 nM on CDK2/CycA2.

Consider `COC[C@@H](C)Nc1nc(C#N)cc2cnc(N[C@H]3C[C@H](N)C3)nc12` [Compound C41, 2-(((1r,3R)-3-aminocyclobutyl)amino)-8-(((R)-1-methoxypropan-2-yl)amino)pyrido[3,4-d]pyrimidine-6-carbonitrile], for which the values for the IC50 at CDK9/CycT1, on CDK1/CycE1 and on CDK2/CycA2 were 1 nM, 540 nM and 82 nM, respectively.

With `N#Cc1cc2cnc(N[C@H]3C[C@H](N)C3)nc2c(NC23CC(C2)C3)n1` [Compound C36, 2-(((1r,3r)-3-aminocyclobutyl)amino)-8-(bicyclo[1.1.1]pentan-1-ylamino)pyrido[3,4-d]pyrimidine-6-carbonitrile], the IC50 against CDK9/CycT1 amounted to 2 nM; on CDK1/CycE1, 25 nM; against CDK2/CycA2, 32 nM.

With `CC(C)Nc1nc(C(F)F)cc2cnc(N[C@H]3C[C@H](N)C3)cc12` [Compound 206, N^7-((1r,3r)-3-aminocyclobutyl)-3-(difluoromethyl)-N^1-isopropyl-2,6-naphthyridine-1,7-diamine], the IC50 worked out at 1 nM at CDK9/CycT1, 25 nM on CDK1/CycE1 and 6 nM against CDK2/CycA2.

With `CC1(Nc2nc(C#N)cc3cnc(N[C@H]4C[C@H](N)C4)nc23)CC1` [Compound C35, 2-(((1r,3r)-3-aminocyclobutyl)amino)-8-((1-methylcyclopropyl)amino)pyrido[3,4-d]pyrimidine-6-carbonitrile], the IC50 on CDK9/CycT1 stood at 1 nM; on CDK1/CycE1 it was 112 nM; against CDK2/CycA2, 19 nM.

In the case of `N#Cc1cc2cnc(N[C@H]3CCCNC3)cc2c(C2CCCC2)n1` [Compound 187, (S)-1-cyclopentyl-7-(piperidin-3-ylamino)-2,6-naphthyridine-3-carbonitrile], the IC50 came to 8 nM against CDK9/CycT1, 413 nM at CDK1/CycE1 and 958 nM on CDK2/CycA2.

Turning to `CC(C)(C)Nc1nc(C(F)F)cc2cnc(N[C@H]3C[C@H](O)C3)nc12` [Compound C8, (1r,3r)-3-((8-(tert-butylamino)-6-(difluoromethyl)pyrido[3,4-d]pyrimidin-2-yl)amino)cyclobutan-1-ol], the values for the IC50 against CDK9/CycT1, on CDK1/CycE1 and against CDK2/CycA2 were 2 nM, 8 nM and 5 nM, respectively.

Consider `CC(C)Nc1nc(C#N)cc2cnc(N[C@H]3C[C@H](CO)C3)nc12` [Compound C31, 2-(((1r,3r)-3-(hydroxymethyl)cyclobutyl)amino)-8-(isopropylamino)pyrido[3,4-d]pyrimidine-6-carbonitrile], for which the results for the IC50 at CDK9/CycT1, at CDK1/CycE1 and against CDK2/CycA2 were 2 nM, 21 nM and 5 nM, respectively.

On to `N#Cc1cc2cnc(N[C@H]3CC[C@H](N)C3)cc2c(N[C@@H]2CCOC2)n1` [Compound 173, 7-(((1S,3S)-3-aminocyclopentyl)amino)-1-(((R)-tetrahydrofuran-3-yl)amino)-2,6-naphthyridine-3-carbonitrile], for which the IC50 against CDK9/CycT1 was 4 nM; at CDK1/CycE1 it was 952 nM; against CDK2/CycA2 it was 436 nM.

In the case of `CC1(Nc2nc(C#N)cc3cnc(N[C@H]4C[C@](C)(N)C4)cc23)CC1` [Compound 211, 7-((trans)-3-amino-3-methylcyclobutyl)amino-1-((1-methylcyclopropyl)amino)-2,6-naphthyridine-3-carbonitrile], the figures for the IC50 against CDK9/CycT1, at CDK1/CycE1 and on CDK2/CycA2 were 3 nM, 233 nM and 434 nM, respectively.

Take `CC(C)Nc1nc(C#N)cc2cnc(N[C@H]3C[C@@H](N4CCN(C)CC4)C3)nc12` [Compound C23, 8-(isopropylamino)-2-(((1s,3s)-3-(4-methylpiperazin-1-yl)cyclobutyl)amino)pyrido[3,4-d]pyrimidine-6-carbonitrile]: the IC50 was 6 nM against CDK9/CycT1, 288 nM at CDK1/CycE1 and 59 nM against CDK2/CycA2.

For the molecule `CC(C)Nc1nc(C#N)cc2cnc(N[C@H]3C[C@H](O)C3)cc12` [Compound 166, 7-(((1r,3r)-3-hydroxycyclobutyl)amino)-1-(isopropylamino)-2,6-naphthyridine-3-carbonitrile], the IC50 against CDK9/CycT1 turned out to be 2 nM; on CDK1/CycE1 it was 14 nM; on CDK2/CycA2, 10 nM.

Consider `CC(C)Oc1nc(C#N)cc2cnc(N[C@H]3C[C@H](N)C3)cc12` [Compound 207, 7-(((1r,3r)-3-aminocyclobutyl)amino)-1-isopropoxy-2,6-naphthyridine-3-carbonitrile], for which the IC50 turned out to be 1 nM at CDK9/CycT1, 126 nM on CDK1/CycE1 and 29 nM on CDK2/CycA2.

As for `CC(C)(C)Nc1nc(C#N)cc2cnc(N[C@H]3C[C@H](O)C3)nc12` [Compound C9, 8-(tert-butylamino)-2-(((1r,3r)-3-hydroxycyclobutyl)amino)pyrido[3,4-d]pyrimidine-6-carbonitrile], the IC50 on CDK9/CycT1 is 1 nM; at CDK1/CycE1 it was 8 nM; at CDK2/CycA2 it was 8 nM.

As to `CC(C)Nc1nc(C#N)cc2cnc(N[C@H]3CC[C@H](N(C)C)CC3)nc12` [Compound 138, 2-(((1r,4r)-4-(dimethylamino)cyclohexyl)amino)-8-(isopropylamino)pyrido[3,4-d]pyrimidine-6-carbonitrile], the figures for the IC50 against CDK9/CycT1, at CDK1/CycE1 and against CDK2/CycA2 were 3 nM, 166 nM and 49 nM, respectively.

As to `N#Cc1cc2cnc(N[C@H]3CCCNC3)cc2c(NC2CCCC2)n1` [Compound 168, (S)-1-(cyclopentylamino)-7-(piperidin-3-ylamino)-2,6-naphthyridine-3-carbonitrile], the IC50 came out at 1 nM against CDK9/CycT1, 63 nM at CDK1/CycE1 and 125 nM at CDK2/CycA2.

Take `N#Cc1cc2cnc(N[C@H]3CCCNC3)cc2c(C2=CCCC2)n1` [Compound 181]: the IC50 on CDK9/CycT1 was found to be 7 nM; on CDK1/CycE1, 518 nM; on CDK2/CycA2 it was 153 nM.

Regarding `CN[C@H]1C[C@H](Nc2ncc3cc(C#N)nc(NC(C)C)c3n2)C1` [Compound C20, 8-(isopropylamino)-2-(((1r,3r)-3-(methylamino)cyclobutyl)amino)pyrido[3,4-d]pyrimidine-6-carbonitrile], the IC50 against CDK9/CycT1 turned out to be 1 nM; on CDK1/CycE1, 71 nM; against CDK2/CycA2 it was 18 nM.

For the molecule `CC(C)Nc1nc(C#N)cc2cnc(N[C@H]3C[C@@H](O)C3)nc12` [Compound 133, 2-(((1s,3s)-3-hydroxycyclobutyl)amino)-8-(isopropylamino)pyrido[3,4-d]pyrimidine-6-carbonitrile], the IC50 against CDK9/CycT1 is 2 nM; at CDK1/CycE1, 29 nM; on CDK2/CycA2, 10 nM.

On to `N#Cc1cc2cnc(N[C@H]3C[C@H](N)C3)cc2c(N[C@@H]2CCOC2)n1` [Compound 179, 7-(((trans)-3-aminocyclobutyl)amino)-1-(((R)-tetrahydrofuran-3-yl)amino)-2,6-naphthyridine-3-carbonitrile], for which the IC50 on CDK9/CycT1 stood at 1 nM; at CDK1/CycE1 it was 272 nM; on CDK2/CycA2, 144 nM.

Turning to `CC(C)(C)Nc1nc(C#N)cc2cnc(N[C@H]3C[C@@H](N)C3)cc12` [Compound 172, 7-(((1s,3s)-3-aminocyclobutyl)amino)-1-(tert-butylamino)-2,6-naphthyridine-3-carbonitrile], the IC50 against CDK9/CycT1 stood at 1 nM; on CDK1/CycE1, 395 nM; at CDK2/CycA2, 287 nM.
